Test results published in ChEMBL document CHEMBL5579790, “Development of novel β2-adrenergic receptor agonists for the stimulation of glucose uptake - The importance of chirality and ring size of cyclic amines” (Bioorg Med Chem Lett, 2024).

Molecular target: Beta-2 adrenergic receptor (Rattus norvegicus) (UniProt P10608)
Assay: Agonist activity at beta2-adrenergic receptor in rat L6 cells transfected with GLUT4 assessed as stimulation of skeletal muscle glucose uptake at 10 uM relative to isoprenaline
Assay type: functional, cell-based

Chain of Beta-2 adrenergic receptor (Rattus norvegicus) (P10608 whole entry, looked up): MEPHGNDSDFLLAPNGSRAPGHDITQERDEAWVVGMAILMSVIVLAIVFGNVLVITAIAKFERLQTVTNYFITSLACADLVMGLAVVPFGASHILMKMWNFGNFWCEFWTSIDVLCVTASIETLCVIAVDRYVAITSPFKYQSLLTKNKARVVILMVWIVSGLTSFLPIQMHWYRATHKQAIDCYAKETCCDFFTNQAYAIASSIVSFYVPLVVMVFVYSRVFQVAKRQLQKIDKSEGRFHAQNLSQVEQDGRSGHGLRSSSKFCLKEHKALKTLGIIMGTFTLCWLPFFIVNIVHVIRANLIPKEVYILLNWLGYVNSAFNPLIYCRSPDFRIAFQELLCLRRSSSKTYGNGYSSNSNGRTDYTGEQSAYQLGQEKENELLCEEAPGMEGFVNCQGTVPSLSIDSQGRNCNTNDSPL

CCC[C@@H](C)NC[C@H](O)c1cccc(F)c1
Activity (filed as agonist): 90%

CCC[C@H]1CCCC[C@@H]([C@@H](O)c2cccc(F)c2)N1
Activity: 39%

CCC[C@@H]1CCC[C@@H]([C@@H](O)c2cccc(F)c2)N1
Activity: < 10%

CCC[C@@H]1CC[C@H]([C@@H](O)c2cccc(F)c2)N1
Activity (filed as agonist): 41%

CCCCNC[C@H](O)c1cccc(F)c1
Activity (filed as agonist): 57%

CCC[C@H]1CCC[C@H]([C@H](O)c2cccc(F)c2)N1
Activity (filed as agonist): 54%

CCC[C@H](C)NC[C@@H](O)c1cccc(O)c1
Activity: 32%

CCC[C@@H]1CC[C@@H]([C@@H](O)c2cccc(F)c2)N1
Activity (filed as agonist): 57%

CCC[C@@H]1C[C@H]([C@H](O)c2cccc(F)c2)N1
Activity (filed as agonist): 103%

CCCCNC[C@@H](O)c1cccc(F)c1
Activity: < 10%

CCC[C@H]1C[C@@H]([C@@H](O)c2cccc(F)c2)N1
Activity (filed as agonist): 45%

CCCCNC[C@@H](O)c1cccc(O)c1
Activity: < 10%

CCC[C@H]1CC[C@@H]([C@@H](O)c2cccc(F)c2)N1
Activity (filed as agonist): 64%

CCC[C@H]1CCCC[C@H]([C@H](O)c2cccc(F)c2)N1
Activity (filed as agonist): 47%

CCC[C@H]1CC[C@H]([C@H](O)c2cccc(F)c2)N1
Activity (filed as agonist): 52%

CCCCNC[C@H](O)c1cccc(O)c1
Activity (filed as agonist): 63%

CCC[C@@H]1CCCC[C@@H]([C@@H](O)c2cccc(F)c2)N1
Activity: < 10%

CCC[C@H]1CCC[C@@H]([C@@H](O)c2cccc(F)c2)N1
Activity (filed as agonist): 48%

CCC[C@H]1C[C@@H]([C@H](O)c2cccc(F)c2)N1
Activity: 19%

CCC[C@@H]1C[C@@H]([C@@H](O)c2cccc(F)c2)N1
Activity (filed as agonist): 47%

CCC[C@@H]1CC[C@@H]([C@H](O)c2cccc(F)c2)N1
Activity (filed as agonist): 43%

CCC[C@@H]1C[C@H]([C@@H](O)c2cccc(F)c2)N1
Activity (filed as agonist): 53%

CCC[C@@H](C)NC[C@@H](O)c1cccc(O)c1
Activity (filed as agonist): 53%

CCC[C@@H]1CCC[C@H]([C@H](O)c2cccc(F)c2)N1
Activity (filed as agonist): 52%

CCC[C@H]1CCCC[C@@H]([C@H](O)c2cccc(F)c2)N1
Activity: 19%

CCC[C@@H]1CCCC[C@@H]([C@H](O)c2cccc(F)c2)N1
Activity: 12%

CCC[C@@H]1CCCC[C@H]([C@H](O)c2cccc(F)c2)N1
Activity: 39%

CCC[C@H]1CCC[C@@H]([C@H](O)c2cccc(F)c2)N1
Activity (filed as agonist): 67%

CCC[C@@H]1CC[C@H]([C@H](O)c2cccc(F)c2)N1
Activity (filed as agonist): 110%

CCC[C@@H]1C[C@@H]([C@H](O)c2cccc(F)c2)N1
Activity: 31%

CCC[C@H]1C[C@H]([C@H](O)c2cccc(F)c2)N1
Activity (filed as agonist): 72%

CCC[C@@H]1CCC[C@H]([C@@H](O)c2cccc(F)c2)N1
Activity (filed as agonist): 50%

CCC[C@H]1CCC[C@H]([C@@H](O)c2cccc(F)c2)N1
Activity (filed as agonist): 56%

CCC[C@H](C)NC[C@H](O)c1cccc(O)c1
Activity (filed as agonist): 79%

CCC[C@H]1CC[C@H]([C@@H](O)c2cccc(F)c2)N1
Activity: 20%

CCC[C@@H]1CCCC[C@H]([C@@H](O)c2cccc(F)c2)N1
Activity (filed as agonist): 52%

CCC[C@H]1CCCC[C@H]([C@@H](O)c2cccc(F)c2)N1
Activity: 15%

CCC[C@H](C)NC[C@H](O)c1cccc(F)c1
Activity (filed as agonist): 75%

CCC[C@H]1C[C@H]([C@@H](O)c2cccc(F)c2)N1
Activity: 37%

CCC[C@@H](C)NC[C@H](O)c1cccc(O)c1
Activity (filed as agonist): 130%

CCC[C@H]1CC[C@@H]([C@H](O)c2cccc(F)c2)N1
Activity: 27%

CCC[C@@H]1CCC[C@@H]([C@H](O)c2cccc(F)c2)N1
Activity (filed as agonist): 42%
